Tested on: A549 cells
Assay: In vitro cytotoxicity screening with median-effect (combination index) analysis of irinotecan and carboplatin
Type: cell-based
Settings: single drug versus irinotecan plus carboplatin combination
Method: As shown, therapeutic agents A and B are tested individually and together at two different ratios for their ability to cause cell death or cell stasis. In these experiments cell death or stasis was assessed using the MTT (3-[4,5-dimethylthiazol-2-yl]-2,5-diphenyltetrazolium) assay described below. Briefly, the dye MTT is reduced by living cells, producing a measurable change in optical density that is correlated to cell viability.
Correlations between the concentration of therapeutic agents A and B, and the two different combination ratios (Y:Z and X:Y) are plotted against cytotoxicity. Cytotoxicity is calculated as a percentage of surviving cells based on the survival of untreated control cells. […] Once this correlation has been established, the cell survival or fraction affected (fa) is used as a surrogate for concentration in calculating the CI.
The Chou-Talalay median-effect method is preferred. The analysis utilizes an equation wherein the dose that causes a particular effect, fa, is given by: D=Dm[fa/(1−fa)]^1/m in which D is the dose of the drug used, fa is the fraction of cells affected by that dose, Dm is the dose for median effect signifying the potency and m is a coefficient representing the shape of the dose-effect curve (m is 1 for first order reactions). […]

N.N.O=C([O-])C1(C(=O)[O-])CCC1.[Pt+2] [carboplatin]
Concentration required to achieve a 90% cell kill on its own compared with the concentration required when combined at a non-antagonistic ratio: significantly higher

CCc1c2c(nc3ccc(OC(=O)N4CCC(N5CCCCC5)CC4)cc13)-c1cc3c(c(=O)n1C2)COC(=O)[C@]3(O)CC [irinotecan]
Concentration required to achieve a 90% cell kill on its own compared with the concentration required when combined at a non-antagonistic ratio: significantly higher

Source: patent US20060228694A1, “Methods to individualize combination therapy” (priority 2003, published 2006)
